The values below are quoted from earlier work in patent US20070065542A1 (Board Of Regents, The University Of Texas System, priority 2005, published 2007).

Read-outs that look alike come from different tables or passages of the source.

The conditions of data set [1]: soluble complexes of calcium, from literature.
The conditions of data set [2]: dissociation constant.
The conditions of data set [3]: soluble iron complexes and reference complexes, known values.
For data set [4] the following is noted: very high concentration.

Regarding `O=C([O-])CC(O)C(=O)[O-].[Ca+2]` (stereo not drawn) [CaMal], in data set [1], the Stability constant is 2.19. Turning to `O=C(O)O` [Carbonate anion], in data set [2], the pK1 was 6.1 and the pK2 is listed as 10.3. With `O=C1O[C@H]([C@@H](O)CO)C(O)=C1O.[Fe+2]` [Ferrous monohydrogen ascorbate], in data set [3], the Stability constant is 1.30. `CC(O)C(=O)O` (stereo not drawn) [Lactic Acid]: in data set [2], the pK1 is reported as 3.87. For `[Cl][Fe]([Cl])[Cl]` [ferric chloride], the “pH at which precipitation of iron occurred” value in data set [4] is recorded as 3-4.
